{"source": "PubChem BioAssay AID1259407", "about": "(Chemical Carcinogenesis Research Information System (CCRIS), 2018)", "tested_on": "CCRIS mutagenicity, Ames/micronucleus/aberration tests", "assay": "CCRIS mutagenicity studies", "conditions": "Test System: AMES SALMONELLA TYPHIMURIUM", "note": "Active and inactive are the calls of the source. The rule behind the calls is not given here."}
{"smiles": "O=NN1CSCC1C(=O)O", "note": "(centres undefined)", "values": [{"measurement": "mutagenic call", "setting": "Strain/Indicator: TA98, Metabolic Activation: NONE, Method: PREINCUBATION", "result": "inactive; negative"}, {"measurement": "mutagenic call", "setting": "Strain/Indicator: TA98, Metabolic Activation: NONE, Method: STANDARD PLATE", "result": "inactive; negative"}, {"measurement": "mutagenic call", "setting": "Strain/Indicator: TA98, Metabolic Activation: RAT, LIVER, S-9, AROCLOR 1254, Method: PREINCUBATION", "result": "inactive; negative"}, {"measurement": "mutagenic call", "setting": "Strain/Indicator: TA98, Metabolic Activation: RAT, LIVER, S-9, AROCLOR 1254, Method: STANDARD PLATE", "result": "inactive; negative"}, {"measurement": "mutagenic call", "setting": "Strain/Indicator: TA100, Metabolic Activation: NONE, Method: PREINCUBATION", "result": "inactive; negative"}, {"measurement": "mutagenic call", "setting": "Strain/Indicator: TA100, Metabolic Activation: NONE, Method: STANDARD PLATE", "result": "inactive; negative"}, {"measurement": "mutagenic call", "setting": "Strain/Indicator: TA100, Metabolic Activation: RAT, LIVER, S-9, AROCLOR 1254, Method: PREINCUBATION", "result": "inactive; negative"}, {"measurement": "mutagenic call", "setting": "Strain/Indicator: TA100, Metabolic Activation: RAT, LIVER, S-9, AROCLOR 1254, Method: STANDARD PLATE", "result": "inactive; negative"}]}
{"smiles": "CC(C)C(=O)N=c1sn(C(=O)C(C)C)c2ccc([N+](=O)[O-])cc12", "values": [{"measurement": "mutagenic call", "setting": "Strain/Indicator: TA100, Metabolic Activation: S-9, Method: STANDARD PLATE", "result": "active; positive"}]}
{"smiles": "COP(=O)(OC)O/C(=C\\Cl)c1cc(Cl)c(Cl)cc1Cl", "values": [{"measurement": "mutagenic call", "setting": "Strain/Indicator: TA98, Metabolic Activation: NONE", "result": "inactive; negative"}, {"measurement": "mutagenic call", "setting": "Strain/Indicator: TA98, Metabolic Activation: RAT, LIVER, S-9, AROCLOR 1254", "result": "inactive; negative"}, {"measurement": "mutagenic call", "setting": "Strain/Indicator: TA100, Metabolic Activation: NONE", "result": "inactive; negative"}, {"measurement": "mutagenic call", "setting": "Strain/Indicator: TA100, Metabolic Activation: RAT, LIVER, S-9, AROCLOR 1254", "result": "inactive; negative"}, {"measurement": "mutagenic call", "setting": "Strain/Indicator: TA102, Metabolic Activation: NONE", "result": "inactive; negative"}, {"measurement": "mutagenic call", "setting": "Strain/Indicator: TA102, Metabolic Activation: RAT, LIVER, S-9, AROCLOR 1254", "result": "inactive; negative"}, {"measurement": "mutagenic call", "setting": "Strain/Indicator: TA1535, Metabolic Activation: NONE", "result": "inactive; negative"}, {"measurement": "mutagenic call", "setting": "Strain/Indicator: TA1535, Metabolic Activation: RAT, LIVER, S-9, AROCLOR 1254", "result": "inactive; negative"}, {"measurement": "mutagenic call", "setting": "Strain/Indicator: TA1537, Metabolic Activation: NONE", "result": "inactive; negative"}, {"measurement": "mutagenic call", "setting": "Strain/Indicator: TA1537, Metabolic Activation: RAT, LIVER, S-9, AROCLOR 1254", "result": "inactive; negative"}]}
